# Measurements as given in ChEMBL document CHEMBL3272007, “Antiarrhythmics. 2. Synthesis and antiarrhythmic activity of N-(piperidylalkyl)trifluoroethoxybenzamides” (1977).
# Tested on: Mus musculus
# Assay: Antiarrhythmic activity in po dosed Swiss-Webster mouse assessed as protection against chloroform-induced ventricular fibrillation administered in 4% acacia
# Format: functional
# Details: Heart
row,SMILES,ED50 [µmol/kg]
1,O=C(NCC1CCCCN1)c1ccccc1OCC(F)(F)F (centres undefined),283
2,Cc1ccc(OCC(F)(F)F)c(C(=O)NCC2CCCCN2)c1 (centres undefined),> 600
3,O=C(NC1CCNCC1)c1cc(OCC(F)(F)F)ccc1OCC(F)(F)F,144
4,O=C(NCC1CCCCN1)c1cc(OCC(F)(F)F)ccc1OCC(F)(F)F (centres undefined) [FLECAINIDE ACETATE],48
5,CCN(CC)CCNC(=O)c1ccc(N)cc1 [PROCAINAMIDE],1030
6,C[N+]1(C)CCCCC1CNC(=O)c1cc(OCC(F)(F)F)ccc1OCC(F)(F)F (centres undefined),> 395
7,O=C(NCC1NCCc2ccccc21)c1cc(OCC(F)(F)F)ccc1OCC(F)(F)F (centres undefined),380
8,CN(CC1CCCCN1)C(=O)c1cc(OCC(F)(F)F)ccc1OCC(F)(F)F (centres undefined),24
9,O=C(NC1CCCNC1)c1cc(OCC(F)(F)F)ccc1OCC(F)(F)F (centres undefined),57
10,O=C(NCC1CCCCN1)c1ccc(OCC(F)(F)F)cc1 (centres undefined),190
11,CC1CCCC(CN(C)C(=O)c2cc(OCC(F)(F)F)ccc2OCC(F)(F)F)N1 (centres undefined),9
12,CC1CCCC(CNC(=O)c2cc(OCC(F)(F)F)ccc2OCC(F)(F)F)N1 (centres undefined),22
13,O=C(c1cc(OCC(F)(F)F)ccc1OCC(F)(F)F)N(CC1CCCCN1)C1CCCCC1 (centres undefined),36
14,CCN1CCCCC1CNC(=O)c1cc(OCC(F)(F)F)ccc1OCC(F)(F)F (centres undefined),102
15,CCN(CC)CC(=O)Nc1c(C)cccc1C [LIDOCAINE],495
16,O=C(NCC1CCCCN1)c1cc(OCC(F)(F)F)cc(OCC(F)(F)F)c1 (centres undefined),388
17,O=C(NCC1CCCCN1)c1c(OCC(F)(F)F)cc(OCC(F)(F)F)cc1OCC(F)(F)F (centres undefined),95
18,O=C(NCC1CCCCN1)c1cccc(OCC(F)(F)F)c1OCC(F)(F)F (centres undefined),149
19,O=C(NCC1CCCCN1)c1ccc(OCC(F)(F)F)cc1OCC(F)(F)F (centres undefined),244
20,O=C(NCC1CCCNC1)c1cc(OCC(F)(F)F)ccc1OCC(F)(F)F (centres undefined),82

row,SMILES,ED50 [µmol/kg]
1,CC(C)(C)N(CC1CCCCN1)C(=O)c1cc(OCC(F)(F)F)ccc1OCC(F)(F)F (centres undefined),17
2,O=C(NCC1CCCCN1)c1cc(Cl)ccc1OCC(F)(F)F (centres undefined),230
3,CCN(CC1CCCN1C)C(=O)c1cc(OCC(F)(F)F)ccc1OCC(F)(F)F (centres undefined),29
4,O=C(NCC1CCCCN1)c1c(OCC(F)(F)F)cccc1OCC(F)(F)F (centres undefined),271
5,CC[N+]1(C)CCCCC1CNC(=O)c1cc(OCC(F)(F)F)ccc1OCC(F)(F)F (centres undefined),> 380
6,O=C(NCC1CCCCN1)c1cc(F)ccc1OCC(F)(F)F (centres undefined),270
7,C=C[C@H]1CN2CC[C@H]1C[C@@H]2[C@@H](O)c1ccnc2ccc(OC)cc12 [QUINIDINE],217
8,CCN(CC1CCCCN1)C(=O)c1cc(OCC(F)(F)F)ccc1OCC(F)(F)F (centres undefined),< 2
9,O=C(c1cc(OCC(F)(F)F)ccc1OCC(F)(F)F)N1CCN2CCCCC2C1 (centres undefined),> 510
10,O=C(NCC1CCC2CCCCC2N1)c1cc(OCC(F)(F)F)ccc1OCC(F)(F)F (centres undefined),27
11,CC(NC(=O)c1cc(OCC(F)(F)F)ccc1OCC(F)(F)F)C1CCCCN1 (centres undefined),19
12,CN1CCCCC1CNC(=O)c1cc(OCC(F)(F)F)ccc1OCC(F)(F)F (centres undefined),44
13,O=CN1CCCCC1CNC(=O)c1cc(OCC(F)(F)F)ccc1OCC(F)(F)F (centres undefined),> 510
14,CCN1CCCC1CNC(=O)c1cc(OCC(F)(F)F)ccc1OCC(F)(F)F (centres undefined),70
15,O=C(NCC1CCNCC1)c1cc(OCC(F)(F)F)ccc1OCC(F)(F)F,149
16,O=C(NCC1CCCCN1)c1ccc(OCC(F)(F)F)c(OCC(F)(F)F)c1 (centres undefined),277
17,O=C(NCC1CCc2ccccc2N1)c1cc(OCC(F)(F)F)ccc1OCC(F)(F)F (centres undefined),> 450
18,CCCCN(CC1CCCCN1)C(=O)c1cc(OCC(F)(F)F)ccc1OCC(F)(F)F (centres undefined),32
19,O=C(NCC1CCCCN1)c1cccc(OCC(F)(F)F)c1 (centres undefined),76
